The values that follow come from the supplement of paper PMC11061612.

The structures appear in SMILES notation.

The test system of test [1] is KP-3 (Pancreatic Carcinoma). Kind of test: Bliss excess, mean over the matrix (fraction); higher = more synergy. The procedure, abridged: (§1)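 After 24 hours at 37°C and 5% CO2 in 1536-well plates, cells in DMEM/F12 or RPMI plus 10% FBS received two-drug dose matrices for 72 hours. Viability came from CellTiter-Glo 2.0 luminescence and was scaled as inhibition, anchored at 0 by vehicle wells and at 1 by blank wells. Combination Emax is taken as the second-highest inhibition in the matrix, and Bliss excess as the observed combination effect less EA + EB − EA·EB, with EA and EB the single-agent effects.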

Test [2] concerns KY821 (Acute Myeloid Leukemia). Described as above. The procedure, abridged:
as §1

For test [3], the system named is JHH-4 (Hepatocellular Carcinoma). The description is as above. The procedure, abridged:
as §1

For the next test, the system named is M059J (Glioblastoma). The test is described as above. The procedure, abridged: as §1
For test [4], the system named is RPMI-8226 (Plasma Cell Myeloma). Described as above. The procedure, abridged: as §1
Test [5] has as its system T-T (Esophageal Squamous Cell Carcinoma). Described as above. The procedure, abridged:
as §1

Test [6] deals with MOLM-13 (Acute Myeloid Leukemia). The test is described as above. The procedure, abridged: as §1
Test [7] concerns COR-L279 (Small Cell Lung Carcinoma). The description is as above. The procedure, abridged: as §1
The subject of test [8] is ESO51 (Esophageal Adenocarcinoma). The description is as above. The procedure, abridged:
as §1

The subject of test [9] is 8505C (Thyroid Gland Carcinoma). Described as above. The procedure, abridged: as §1
Test [10] relates to SNU-398 (Hepatocellular Carcinoma). Described as above. The procedure, abridged: as §1
The subject of test [11] is SU-DHL-5 (B-Cell Non-Hodgkin's Lymphoma). Described as above. The procedure, abridged:
as §1

In another test the test system is SJSA-1 (Osteosarcoma). The test is described as above. The procedure, abridged:
as §1

For another test, the system named is NCI-H2731 (Mesothelioma). The test is described as above. The procedure, abridged:
as §1

Test [12] concerns KMS-12-BM (Plasma Cell Myeloma). Described as above. The procedure, abridged:
as §1

Another test deals with G-361 (Melanoma). The description is as above. The procedure, abridged: as §1
Test [13] has as its system NCI-H661 (Non-Small Cell Lung Carcinoma). The description is as above. The procedure, abridged: as §1
For test [14], the system named is NCI-H929 (Plasma Cell Myeloma). The test is described as above. The procedure, abridged: as §1
In test [15] the test system is NCI-H520 (Squamous Cell Lung Carcinoma). The test is described as above. The procedure, abridged:
as §1

The test system of test [16] is ST486 (Burkitt's Lymphoma). Kind of test: combination Emax (second highest fraction inhibited in the dose matrix, 72 h); higher = more inhibition; extreme values may be limits of the assay. The procedure, abridged:
as §1
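For Bliss excess, mean over the matrix in this document: after 72 h of two-drug dosing.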

For `COc1cccc(OCCCN)c1-c1cc(Nc2cnc(C#N)cn2)n[nH]1` [Prexasertib] + Cc1cc2ncnn2cc1Nc1ncc2c(n1)n(C1CCOCC1)c(=O)n2C [AZD7648] (first compound max 1 µM, 7x7, partner max 10 µM), the Bliss excess in test [1] is 0.0141; in test [2] it was 0.0276; in [3], -0.0281; in the test with M059J (Glioblastoma), -0.0178; in test [4], -0.0936; in test [5] it was 0.0364. Besides, the Bliss excess in [6] is -0.0094; in [7], 0.0225; in [8], -0.0081; in [9] it was 0.0131; in test [10], 0.0353; in test [11], -0.0314. The Bliss excess in the test with SJSA-1 (Osteosarcoma) was -0.0326; with NCI-H2731 (Mesothelioma) it was -0.0001; in test [12], 0.0085; in the test on G-361 (Melanoma), -0.0052; in test [13], -0.0543; in test [14] it was -0.0864. Moreover, the Bliss excess in [15] was determined as 0.0278. Moreover, the “combination Emax” value in test [16] stood at 0.996.
For the compound `COc1cccc(OCCCN)c1-c1cc(Nc2cnc(C#N)cn2)n[nH]1` [Prexasertib] + O=C(c1cc(Cc2n[nH]c(=O)c3ccccc23)ccc1F)N1CCN(C(=O)C2CC2)CC1 [Olaparib] (first compound max 1 µM, 7x7, partner max 10 µM), the Bliss excess in test [1] is -0.0444; in test [2], -0.0266; in test [3], 0.0296; in the test with M059J (Glioblastoma) it was -0.0643; in test [4] it was 0.0124; in [5], 0.0186. Further, the Bliss excess was -0.0224 in test [6]; -0.0493 in [7]; -0.248 in test [8]; -0.0434 in test [9]; -0.0572 in [10]; -0.0097 in [11]. In addition, the Bliss excess in the test on SJSA-1 (Osteosarcoma) is -0.0639; with NCI-H2731 (Mesothelioma), -0.0228; in test [12], -0.0312; with G-361 (Melanoma) it was -0.0411; in test [13], -0.0373; in test [14], -0.0638. Also, the Bliss excess in test [15] was -0.0756. Besides, the “combination Emax” value in test [16] amounted to 0.973.
As for `COc1cc2c(cc1OCCCCCOc1cc3c(cc1OC)C(=O)N1C=C(C)C[C@H]1C=N3)N=C[C@@H]1CC(C)=CN1C2=O` [SG3199] + O=C(c1cc(Cc2n[nH]c(=O)c3ccccc23)ccc1F)N1CCN(C(=O)C2CC2)CC1 [Olaparib] (first compound max 0.001 µM, 7x7, partner max 10 µM), the Bliss excess in [1] was -0.0424; in [2], -0.0244; in test [3], -0.0327; with M059J (Glioblastoma), -0.037; in test [4], -0.0213; in [5], -0.0418. Further, the Bliss excess was 0.0049 in test [6]; -0.0351 in test [7]; -0.0129 in test [8]; -0.0031 in test [9]; -0.0322 in test [10]; -0.027 in test [11]. For the same compound, the Bliss excess is -0.0252 in the test with SJSA-1 (Osteosarcoma); -0.0505 in the test on NCI-H2731 (Mesothelioma); 0.0202 in test [12]; -0.0294 with G-361 (Melanoma); -0.0432 in test [13]; -0.0333 in test [14]. For the same compound, the Bliss excess in test [15] was -0.0503. In addition, the “combination Emax” value in test [16] was found to be 0.103.
Take `CCc1c2c(nc3ccc(O)cc13)-c1cc3c(c(=O)n1C2)COC(=O)[C@]3(O)CC` [SN-38] + CN(C)CCCOc1ccc(-c2ccc3ncc4c(c3c2)n(C2CCOCC2)c(=O)n4C)cn1 [AZD0156] (first compound max 0.3 µM, 7x7, partner max 1 µM): the Bliss excess in test [1] was -0.0372; in test [2], 0.055; in test [3] it was 0.0443; with M059J (Glioblastoma), -0.0104; in test [4], 0.0218; in [5], -0.0151. Moreover, the Bliss excess in test [6] was 0.0493; in test [7], 0.0163; in [8], -0.031; in [9], 0.014; in test [10], 0.0255; in test [11] it was 0.0712. In addition, the Bliss excess is -0.0469 in the test on SJSA-1 (Osteosarcoma); -0.0407 in the test with NCI-H2731 (Mesothelioma); 0.0462 in test [12]; 0.0105 with G-361 (Melanoma); 0.0286 in test [13]; -0.089 in test [14]. The Bliss excess in test [15] is 0.0044. The “combination Emax” value in test [16] was found to be 0.733.
Turning to `C[C@@H](c1ccc2nccn2c1)n1nnc2ncc(-c3cnn(C)c3)nc21` [Savolitinib] + CC1(C)CCC(CN2CCN(c3ccc(C(=O)NS(=O)(=O)c4ccc(NCC5CCOCC5)c([N+](=O)[O-])c4)c(Oc4cnc5[nH]ccc5c4)c3)CC2)=C(c2ccc(Cl)cc2)C1 [Venetoclax] (first compound max 1 µM, 7x7, partner max 1 µM), the Bliss excess was -0.0762 in test [1]; -0.0139 in test [2]; 0.0006 in test [3]; -0.0321 in the test with M059J (Glioblastoma); -0.0456 in test [4]; 0.011 in test [5]. The Bliss excess is 0.0025 in test [6]; -0.0059 in test [7]; -0.0334 in [8]; -0.0664 in test [9]; -0.057 in test [10]; -0.0977 in [11]. For the same compound, the Bliss excess with SJSA-1 (Osteosarcoma) is -0.0775; in the test on NCI-H2731 (Mesothelioma), -0.0423; in test [12] it was 0.0253; in the test on G-361 (Melanoma), -0.0764; in test [13] it was -0.0651; in [14], 0.0439. For the same compound, in [15], the Bliss excess is -0.0333. In test [16], the “combination Emax” value was determined as 0.118.
For `C[C@@H](c1ccc2nccn2c1)n1nnc2ncc(-c3cnn(C)c3)nc21` [Savolitinib] + Cc1c2c(nn1C)CSCc1cc(n(C)n1)CSc1cc(c3ccccc3c1)OCCCc1c(C(=O)O)n(C)c3c-2c(Cl)ccc13 [AZD5991] (first compound max 1 µM, 7x7, partner max 1 µM), the Bliss excess in test [1] was -0.0785; in test [2], -0.0415; in test [3], -0.0082; in the test with M059J (Glioblastoma), -0.0289; in test [4] it was -0.0125; in test [5] it was -0.0291. In addition, the Bliss excess was -0.0112 in test [6]; 0.0219 in [7]; -0.0013 in [8]; -0.0324 in [9]; -0.0697 in [10]; -0.0269 in test [11]. The Bliss excess in the test with SJSA-1 (Osteosarcoma) is -0.0714; with NCI-H2731 (Mesothelioma), -0.0586; in test [12], -0.0168; in the test on G-361 (Melanoma), -0.0044; in test [13] it was -0.0666; in test [14], 0.0063. Also, the Bliss excess in test [15] is -0.0539. Also, the “combination Emax” value in test [16] came to 0.483.
For `Cn1cnc2c(F)c(Nc3ccc(Br)cc3Cl)c(C(=O)NOCCO)cc21` [Selumetinib] + C=CCn1c(=O)c2cnc(Nc3ccc(N4CCN(C)CC4)cc3)nc2n1-c1cccc(C(C)(C)O)n1 [AZD1775] (first compound max 10 µM, partner max 1 µM), the Bliss excess in [1] is -0.0312; in test [2] it was -0.115; in test [3], -0.0782; with M059J (Glioblastoma), -0.0499; in test [4], 0.0433; in [5] it was -0.056. The Bliss excess was -0.0414 in test [6]; 0.0006 in [7]; -0.0767 in test [8]; 0.0279 in test [9]; 0.0182 in test [10]; 0.0041 in test [11]. Moreover, the Bliss excess is -0.0275 in the test on SJSA-1 (Osteosarcoma); -0.042 in the test on NCI-H2731 (Mesothelioma); -0.0355 in [12]; -0.0084 in the test with G-361 (Melanoma); -0.0891 in test [13]; 0.0127 in [14]. Further, the Bliss excess in test [15] is -0.0795. Moreover, the “combination Emax” value in test [16] was determined as 0.978.
